Laboratory results as given in a compilation of properties of binary mixtures (doi:10.1007/s10953-019-00868-0).

Experiment: xn = mol fraction of the nth substance listed
Conditions: 101.3 kPa

`NCCNCCN` + CCCC[n+]1ccn(C)c1.F[B-](F)(F)F showed a viscosity (298.15 K, x2 = 0.051) of 6.71 mPa·s, a viscosity (298.15 K, x2 = 0.1986) of 12.1 mPa·s and a viscosity (298.15 K, x2 = 0.2998) of 17.35 mPa·s. For the same molecule, the viscosity (298.15 K, x2 = 0.4992) was 31.5 mPa·s, the viscosity (298.15 K, x2 = 0.6974) was 52.6 mPa·s and the viscosity (298.15 K, x2 = 0.8012) was 67.1 mPa·s. For the same molecule, the viscosity (298.15 K, x2 = 0.8948) was 82.6 mPa·s, the viscosity (298.15 K, x2 = 0.9496) was 91.9 mPa·s and the viscosity (303.15 K, x2 = 0) was 4.5 mPa·s. The viscosity (303.15 K, x2 = 0.051) was 5.56 mPa·s, the viscosity (303.15 K, x2 = 0.1986) was 10.27 mPa·s and the viscosity (303.15 K, x2 = 0.3995) was 19.78 mPa·s. For the same molecule, the viscosity (303.15 K, x2 = 0.8012) was 56.4 mPa·s, the viscosity (303.15 K, x2 = 0.9496) was 76.4 mPa·s and the viscosity (308.15 K, x2 = 0) was 3.86 mPa·s. The viscosity (308.15 K, x2 = 0.051) was 4.85 mPa·s, the viscosity (308.15 K, x2 = 0.1986) was 8.94 mPa·s and the viscosity (308.15 K, x2 = 0.3995) was 16.7 mPa·s. For the same molecule, the viscosity (308.15 K, x2 = 0.4992) was 22.15 mPa·s, the viscosity (308.15 K, x2 = 0.5905) was 28.1 mPa·s and the viscosity (308.15 K, x2 = 0.6974) was 36.3 mPa·s. For the same molecule, the viscosity (308.15 K, x2 = 0.8012) was 46 mPa·s, the viscosity (308.15 K, x2 = 0.8948) was 55.7 mPa·s and the viscosity (308.15 K, x2 = 0.9496) was 60.4 mPa·s. The viscosity (313.15 K, x2 = 0) was 3.4 mPa·s, the viscosity (313.15 K, x2 = 0.051) was 4.31 mPa·s and the viscosity (313.15 K, x2 = 0.2998) was 10.9 mPa·s. The viscosity (313.15 K, x2 = 0.5905) was 24.07 mPa·s, the viscosity (313.15 K, x2 = 0.8012) was 38.8 mPa·s and the viscosity (313.15 K, x2 = 0.8948) was 46.5 mPa·s. The viscosity (313.15 K, x2 = 0.9496) was 49.8 mPa·s, the viscosity (318.15 K, x2 = 0) was 3.05 mPa·s and the viscosity (318.15 K, x2 = 0.1986) was 7.06 mPa·s. It also gave a viscosity (318.15 K, x2 = 0.2998) of 9.7 mPa·s, a viscosity (318.15 K, x2 = 0.3995) of 12.77 mPa·s and a viscosity (318.15 K, x2 = 0.4992) of 16.63 mPa·s. For the same molecule, the viscosity (318.15 K, x2 = 0.5905) was 20.88 mPa·s, the viscosity (318.15 K, x2 = 0.6974) was 26.6 mPa·s and the viscosity (318.15 K, x2 = 0.8012) was 33.2 mPa·s. The viscosity (318.15 K, x2 = 0.8948) was 39.2 mPa·s, the viscosity (318.15 K, x2 = 0.9496) was 42 mPa·s and the viscosity (323.15 K, x2 = 0) was 2.7 mPa·s. It also gave a viscosity (323.15 K, x2 = 0.051) of 3.55 mPa·s, a viscosity (323.15 K, x2 = 0.1986) of 6.33 mPa·s and a viscosity (323.15 K, x2 = 0.4992) of 14.65 mPa·s. It also gave a viscosity (323.15 K, x2 = 0.6974) of 23.13 mPa·s, a viscosity (323.15 K, x2 = 0.8012) of 28.5 mPa·s and a viscosity (323.15 K, x2 = 0.8948) of 33.3 mPa·s. The viscosity (328.15 K, x2 = 0) was 2.45 mPa·s, the viscosity (328.15 K, x2 = 0.051) was 3.2 mPa·s and the viscosity (328.15 K, x2 = 0.1986) was 5.68 mPa·s. For the same molecule, the viscosity (328.15 K, x2 = 0.5905) was 15.53 mPa·s, the viscosity (328.15 K, x2 = 0.8012) was 23.39 mPa·s and the viscosity (328.15 K, x2 = 0.8948) was 26.7 mPa·s. It also gave a viscosity (328.15 K, x2 = 0.9496) of 27.2 mPa·s, a viscosity (333.15 K, x2 = 0) of 2.032 mPa·s and a viscosity (333.15 K, x2 = 0.051) of 2.67 mPa·s. For the same molecule, the viscosity (333.15 K, x2 = 0.3995) was 8.72 mPa·s, the viscosity (333.15 K, x2 = 0.5905) was 13.88 mPa·s and the viscosity (333.15 K, x2 = 0.8012) was 21.3 mPa·s. For the same molecule, the viscosity (333.15 K, x2 = 0.8948) was 24.18 mPa·s.

In the case of `CCCC[n+]1ccn(C)c1.F[B-](F)(F)F` + NCCNCCN, the viscosity (313.15 K, x1 = 1) is reported as 51.4 mPa·s, the viscosity (318.15 K, x1 = 1) is reported as 42.1 mPa·s and the viscosity (323.15 K, x1 = 1) is reported as 34.8 mPa·s. For the same molecule, the viscosity (333.15 K, x1 = 1) was 24.7 mPa·s.
